Assay results: PMC3969223, “Characterization of WZ4003 and HTH-01-015 as selective inhibitors of the LKB1-tumour-suppressor-activated NUAK kinases” (Biochemical Journal, 2013)

Experiments:
Experiment in all cases: Kinase profiling
Assay type in all cases: biochemical
Conditions in all cases: 0.1 or 1 μM inhibitor; mean of triplicate
STK33 = STK33 (Homo sapiens, UniProt Q9BYT3)
Outline: (§1)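 Read-out: % residual kinase activity vs DMSO control; mean of triplicates ±S.D. Inhibitor tested at 0.1 or 1 μM in vitro across a 140-kinase panel.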

ERK5 = ERK5 (Homo sapiens, UniProt Q13164)
Outline: as §1

JNK2 = JNK2 (Homo sapiens, UniProt P45984)
JNK2, sequence (P45984 whole entry): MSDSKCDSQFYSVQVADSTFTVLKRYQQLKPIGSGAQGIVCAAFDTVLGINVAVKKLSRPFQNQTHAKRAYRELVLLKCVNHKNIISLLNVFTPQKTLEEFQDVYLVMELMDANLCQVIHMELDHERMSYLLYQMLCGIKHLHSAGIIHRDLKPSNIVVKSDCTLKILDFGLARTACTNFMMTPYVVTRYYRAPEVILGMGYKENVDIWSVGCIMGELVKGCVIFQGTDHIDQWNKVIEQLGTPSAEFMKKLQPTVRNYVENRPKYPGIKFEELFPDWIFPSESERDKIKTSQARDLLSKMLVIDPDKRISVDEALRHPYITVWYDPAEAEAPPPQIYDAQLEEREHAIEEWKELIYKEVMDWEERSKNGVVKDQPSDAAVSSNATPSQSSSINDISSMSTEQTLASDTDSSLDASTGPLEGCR
Outline: as §1

IR = IR (Homo sapiens, UniProt P06213)
Outline: as §1

RSK1 = RSK1 (Homo sapiens, UniProt Q15418)
Outline: as §1

PIM3 = PIM3 (Homo sapiens, UniProt Q86V86)
Outline: as §1

EF2K = EF2K (Homo sapiens, UniProt O00418)
MELK = MELK (Homo sapiens, UniProt Q14680)
Outline: as §1

SGK1 = SGK1 (Homo sapiens, UniProt O00141)
Outline: as §1

TTBK2 = TTBK2 (Homo sapiens, UniProt Q6IQ55)
Outline: as §1

p38γ MAPK = p38γ MAPK (Homo sapiens, UniProt P53778)
p38δ MAPK = p38δ MAPK (Homo sapiens, UniProt O15264)
Outline: as §1

PIM1 = PIM1 (Homo sapiens, UniProt P11309)
TAK1 = TAK1 (Homo sapiens, UniProt O43318)
Outline: as §1

TBK1 = TBK1 (Homo sapiens, UniProt Q9UHD2)
Outline: as §1

MARK2 = MARK2 (Homo sapiens, UniProt Q7KZI7)
MARK2, sequence (Q7KZI7 whole entry): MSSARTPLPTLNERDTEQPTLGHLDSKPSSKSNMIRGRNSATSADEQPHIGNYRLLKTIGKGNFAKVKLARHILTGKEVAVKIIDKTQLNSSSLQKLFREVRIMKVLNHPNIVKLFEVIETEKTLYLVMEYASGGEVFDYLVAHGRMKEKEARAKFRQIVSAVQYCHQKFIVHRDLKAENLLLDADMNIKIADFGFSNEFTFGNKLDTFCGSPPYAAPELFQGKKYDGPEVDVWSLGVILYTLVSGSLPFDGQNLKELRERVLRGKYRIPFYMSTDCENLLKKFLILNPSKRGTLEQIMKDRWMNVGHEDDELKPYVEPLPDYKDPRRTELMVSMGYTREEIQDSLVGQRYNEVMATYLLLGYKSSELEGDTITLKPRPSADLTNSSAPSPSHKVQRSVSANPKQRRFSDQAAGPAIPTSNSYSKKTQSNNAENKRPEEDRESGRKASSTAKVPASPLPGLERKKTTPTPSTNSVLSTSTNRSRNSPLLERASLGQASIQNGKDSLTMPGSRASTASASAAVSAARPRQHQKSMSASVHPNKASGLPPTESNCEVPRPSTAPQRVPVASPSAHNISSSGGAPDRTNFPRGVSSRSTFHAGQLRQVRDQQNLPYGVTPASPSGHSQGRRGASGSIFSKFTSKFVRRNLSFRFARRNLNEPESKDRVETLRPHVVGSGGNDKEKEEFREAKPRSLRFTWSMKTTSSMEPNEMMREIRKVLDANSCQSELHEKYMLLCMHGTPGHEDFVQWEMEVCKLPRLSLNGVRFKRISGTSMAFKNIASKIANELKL
Outline: as §1

IKKβ = IKKβ (Homo sapiens, UniProt O14920)
IKKβ, sequence (O14920 whole entry): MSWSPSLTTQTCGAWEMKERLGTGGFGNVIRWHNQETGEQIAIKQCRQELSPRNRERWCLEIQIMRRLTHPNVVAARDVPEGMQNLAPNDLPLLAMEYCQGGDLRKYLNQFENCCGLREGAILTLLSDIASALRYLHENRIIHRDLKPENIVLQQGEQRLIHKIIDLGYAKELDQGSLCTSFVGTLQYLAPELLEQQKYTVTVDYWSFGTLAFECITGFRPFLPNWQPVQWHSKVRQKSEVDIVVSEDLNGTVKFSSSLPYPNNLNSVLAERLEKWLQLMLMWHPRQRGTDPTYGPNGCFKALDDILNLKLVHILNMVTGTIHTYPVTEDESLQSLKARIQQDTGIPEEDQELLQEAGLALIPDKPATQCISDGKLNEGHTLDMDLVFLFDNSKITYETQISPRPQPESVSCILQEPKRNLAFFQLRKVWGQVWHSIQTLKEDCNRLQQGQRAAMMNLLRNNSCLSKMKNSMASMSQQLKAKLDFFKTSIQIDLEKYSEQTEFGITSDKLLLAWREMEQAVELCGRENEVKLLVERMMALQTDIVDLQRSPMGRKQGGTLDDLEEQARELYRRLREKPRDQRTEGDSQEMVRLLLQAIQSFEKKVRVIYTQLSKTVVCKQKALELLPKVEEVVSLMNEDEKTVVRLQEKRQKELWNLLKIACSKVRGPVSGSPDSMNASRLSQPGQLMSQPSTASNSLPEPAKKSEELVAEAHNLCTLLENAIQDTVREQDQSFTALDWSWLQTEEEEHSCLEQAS
Outline: as §1

CLK2 = CLK2 (Homo sapiens, UniProt P49760)
Outline: as §1

DYRK3 = DYRK3 (Homo sapiens, UniProt O43781)
Outline: as §1

MNK2 = MNK2 (Homo sapiens, UniProt Q9HBH9)
Outline: as §1

MAPKAP-K2 = MAPKAP-K2 (Homo sapiens, UniProt P49137)
MAPKAP-K2, sequence (P49137 whole entry): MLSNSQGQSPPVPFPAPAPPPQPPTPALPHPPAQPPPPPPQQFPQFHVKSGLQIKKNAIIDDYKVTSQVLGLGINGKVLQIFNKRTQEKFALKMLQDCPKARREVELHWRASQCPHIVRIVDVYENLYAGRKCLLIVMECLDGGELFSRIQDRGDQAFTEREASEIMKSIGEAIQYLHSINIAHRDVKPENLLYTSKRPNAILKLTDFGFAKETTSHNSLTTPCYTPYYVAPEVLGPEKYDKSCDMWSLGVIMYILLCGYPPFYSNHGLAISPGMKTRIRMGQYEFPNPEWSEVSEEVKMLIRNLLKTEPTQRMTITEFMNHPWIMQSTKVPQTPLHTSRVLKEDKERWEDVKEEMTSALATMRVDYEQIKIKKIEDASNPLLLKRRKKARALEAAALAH
Outline: as §1

SRPK1 = SRPK1 (Homo sapiens, UniProt Q96SB4)
Outline: as §1

PDGFRA = PDGFRA (Homo sapiens, UniProt P16234)
Outline: as §1

TTK = TTK (Homo sapiens, UniProt P33981)
Outline: as §1

HER4 = HER4 (Homo sapiens, UniProt Q15303)
Outline: as §1

HIPK2 = HIPK2 (Homo sapiens, UniProt Q9H2X6)
Outline: as §1

CAMK1 = CAMK1 (Homo sapiens, UniProt Q14012)
Outline: as §1

MST2 = MST2 (Homo sapiens, UniProt Q13188)
Outline: as §1

S6K1 = S6K1 (Homo sapiens, UniProt P23443)
Outline: as §1

DDR2 = DDR2 (Homo sapiens, UniProt Q16832)
Outline: as §1

MST3 = MST3 (Homo sapiens, UniProt Q9Y6E0)
MST3, sequence (Q9Y6E0 whole entry): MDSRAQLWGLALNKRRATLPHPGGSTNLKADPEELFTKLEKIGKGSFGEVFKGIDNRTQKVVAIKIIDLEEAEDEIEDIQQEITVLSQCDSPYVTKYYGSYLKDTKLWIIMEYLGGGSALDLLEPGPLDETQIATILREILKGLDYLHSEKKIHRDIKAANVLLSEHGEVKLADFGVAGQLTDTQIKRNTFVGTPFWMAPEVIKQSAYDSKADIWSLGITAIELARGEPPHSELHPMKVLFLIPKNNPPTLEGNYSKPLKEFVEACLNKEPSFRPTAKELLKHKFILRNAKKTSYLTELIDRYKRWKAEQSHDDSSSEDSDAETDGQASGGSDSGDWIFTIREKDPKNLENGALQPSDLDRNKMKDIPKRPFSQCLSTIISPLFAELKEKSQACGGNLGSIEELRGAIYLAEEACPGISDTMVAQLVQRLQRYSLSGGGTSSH

CDK9-Cyc T1 = CDK9-Cyc T1 (Homo sapiens, UniProt P50750)
CDK9-Cyc T1, sequence (P50750 whole entry): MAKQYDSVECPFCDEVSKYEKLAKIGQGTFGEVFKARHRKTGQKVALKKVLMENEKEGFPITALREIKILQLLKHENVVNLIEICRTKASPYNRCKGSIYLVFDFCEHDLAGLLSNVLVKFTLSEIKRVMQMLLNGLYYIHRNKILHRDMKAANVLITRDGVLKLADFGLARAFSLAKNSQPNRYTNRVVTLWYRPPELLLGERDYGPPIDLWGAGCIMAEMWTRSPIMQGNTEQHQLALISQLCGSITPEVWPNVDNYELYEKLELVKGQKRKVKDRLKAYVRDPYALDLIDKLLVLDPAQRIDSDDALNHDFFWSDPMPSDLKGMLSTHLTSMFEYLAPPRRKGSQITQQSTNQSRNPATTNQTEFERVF
CDK9-Cyc T1, sequence (O60563 whole entry partner): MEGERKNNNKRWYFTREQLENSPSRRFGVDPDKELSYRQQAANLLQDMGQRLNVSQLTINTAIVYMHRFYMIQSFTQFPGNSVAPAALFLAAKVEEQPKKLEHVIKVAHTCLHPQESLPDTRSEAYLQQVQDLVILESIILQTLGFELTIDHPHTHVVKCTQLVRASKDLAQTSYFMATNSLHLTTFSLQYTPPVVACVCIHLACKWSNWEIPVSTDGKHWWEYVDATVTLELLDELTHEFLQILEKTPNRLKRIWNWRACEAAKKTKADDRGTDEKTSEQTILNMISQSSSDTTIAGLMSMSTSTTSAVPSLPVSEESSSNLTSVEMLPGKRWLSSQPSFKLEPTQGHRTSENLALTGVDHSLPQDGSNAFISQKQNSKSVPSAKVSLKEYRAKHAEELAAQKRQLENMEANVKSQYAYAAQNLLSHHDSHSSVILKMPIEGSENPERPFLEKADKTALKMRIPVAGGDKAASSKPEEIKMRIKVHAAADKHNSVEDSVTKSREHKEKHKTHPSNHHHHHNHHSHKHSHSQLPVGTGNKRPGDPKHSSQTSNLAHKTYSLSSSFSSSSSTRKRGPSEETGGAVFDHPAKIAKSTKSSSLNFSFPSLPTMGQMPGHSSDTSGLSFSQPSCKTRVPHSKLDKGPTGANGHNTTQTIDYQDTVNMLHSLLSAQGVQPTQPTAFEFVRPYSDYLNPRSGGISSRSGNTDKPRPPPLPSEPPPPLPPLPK

MLK3 = MLK3 (Homo sapiens, UniProt Q16584)
Outline: as §1

YES1 = YES1 (Homo sapiens, UniProt P07947)
YES1, sequence (P07947 whole entry): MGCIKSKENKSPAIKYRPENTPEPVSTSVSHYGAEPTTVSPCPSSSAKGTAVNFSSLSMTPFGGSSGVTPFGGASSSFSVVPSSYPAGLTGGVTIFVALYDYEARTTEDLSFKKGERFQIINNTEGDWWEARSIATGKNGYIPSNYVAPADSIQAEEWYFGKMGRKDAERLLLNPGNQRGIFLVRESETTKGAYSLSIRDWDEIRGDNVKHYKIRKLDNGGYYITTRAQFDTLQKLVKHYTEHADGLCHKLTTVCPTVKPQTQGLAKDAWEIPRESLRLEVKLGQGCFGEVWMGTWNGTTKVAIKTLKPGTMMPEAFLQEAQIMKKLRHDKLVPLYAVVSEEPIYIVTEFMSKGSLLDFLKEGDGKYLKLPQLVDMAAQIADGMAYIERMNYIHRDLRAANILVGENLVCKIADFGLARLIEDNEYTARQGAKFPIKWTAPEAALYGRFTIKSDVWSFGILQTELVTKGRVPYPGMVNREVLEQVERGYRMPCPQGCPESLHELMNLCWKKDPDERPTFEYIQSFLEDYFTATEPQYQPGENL
Outline: as §1

SYK = SYK (Homo sapiens, UniProt P43405)
Outline: as §1

MSK1 = MSK1 (Homo sapiens, UniProt O75582)
Outline: as §1

DAPK1 = DAPK1 (Homo sapiens, UniProt P53355)
Outline: as §1

GCK = GCK (Homo sapiens, UniProt Q12851)
EPH-A4 = EPH-A4 (Homo sapiens, UniProt P54764)
Outline: as §1

CHK1 = CHK1 (Homo sapiens, UniProt O14757)
CHK1, sequence (O14757 whole entry): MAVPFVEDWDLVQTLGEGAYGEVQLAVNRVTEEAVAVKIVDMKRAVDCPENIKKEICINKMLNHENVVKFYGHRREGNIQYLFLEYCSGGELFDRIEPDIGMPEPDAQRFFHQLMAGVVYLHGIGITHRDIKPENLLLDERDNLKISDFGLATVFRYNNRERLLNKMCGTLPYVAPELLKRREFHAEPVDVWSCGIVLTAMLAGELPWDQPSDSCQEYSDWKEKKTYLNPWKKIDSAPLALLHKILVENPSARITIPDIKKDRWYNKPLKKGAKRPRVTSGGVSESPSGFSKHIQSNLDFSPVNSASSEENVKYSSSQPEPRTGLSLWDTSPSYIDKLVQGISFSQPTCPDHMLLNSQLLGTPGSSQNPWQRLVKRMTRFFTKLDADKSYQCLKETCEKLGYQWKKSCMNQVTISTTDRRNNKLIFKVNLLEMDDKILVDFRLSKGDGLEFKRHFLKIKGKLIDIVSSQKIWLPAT
Outline: as §1

WNK1 = WNK1 (Homo sapiens, UniProt Q9H4A3)
Outline: as §1

ULK2 = ULK2 (Homo sapiens, UniProt Q8IYT8)
Outline: as §1

Compound: Cc1nc(Nc2cnn(C3CCNCC3)c2)nc2c1N(C)C(=O)c1cc3ccccc3cc1N2C [HTH-01-015]
- STK33 activity, percentage of DMSO control (STK33): 93 percentage
- ERK5 activity, percentage of DMSO control (ERK5): 121 percentage
- JNK2 activity, percentage of DMSO control (JNK2): 130 percentage
- IR activity, percentage of DMSO control (IR): 105 percentage
- RSK1 activity, percentage of DMSO control (RSK1): 93 percentage
- PIM3 activity, percentage of DMSO control (PIM3): 97 percentage
- EF2K activity, percentage of DMSO control (EF2K): 103 percentage
- MELK activity, percentage of DMSO control (MELK): 99 percentage
- SGK1 activity, percentage of DMSO control (SGK1): 97 percentage
- TTBK2 activity, percentage of DMSO control (TTBK2): 102 percentage
- p38γ MAPK activity, percentage of DMSO control (p38γ MAPK): 100 percentage
- p38δ MAPK activity, percentage of DMSO control (p38δ MAPK): 113 percentage
- PIM1 activity, percentage of DMSO control (PIM1): 92 percentage
- TAK1 activity, percentage of DMSO control (TAK1): 109 percentage
- TBK1 activity, percentage of DMSO control (TBK1): 112 percentage
- MARK2 activity, percentage of DMSO control (MARK2): 99 percentage
- IKKβ activity, percentage of DMSO control (IKKβ): 81 percentage
- CLK2 activity, percentage of DMSO control (CLK2): 54 percentage
- DYRK3 activity, percentage of DMSO control (DYRK3): 98 percentage
- MNK2 activity, percentage of DMSO control (MNK2): 106 percentage
- MAPKAP-K2 activity, percentage of DMSO control (MAPKAP-K2): 118 percentage
- SRPK1 activity, percentage of DMSO control (SRPK1): 103 percentage
- PDGFRA activity, percentage of DMSO control (PDGFRA): 109 percentage
- TTK activity, percentage of DMSO control (TTK): 118 percentage
- HER4 activity, percentage of DMSO control (HER4): 102 percentage
- HIPK2 activity, percentage of DMSO control (HIPK2): 107 percentage
- CAMK1 activity, percentage of DMSO control (CAMK1): 92 percentage
- MST2 activity, percentage of DMSO control (MST2): 118 percentage
- S6K1 activity, percentage of DMSO control (S6K1): 85 percentage
- DDR2 activity, percentage of DMSO control (DDR2): 91 percentage
- MST3 activity, percentage of DMSO control (MST3): 111 percentage
- CDK9-Cyc T1 activity, percentage of DMSO control (CDK9-Cyc T1): 68 percentage
- MLK3 activity, percentage of DMSO control (MLK3): 94 percentage
- YES1 activity, percentage of DMSO control (YES1): 76 percentage
- SYK activity, percentage of DMSO control (SYK): 125 percentage
- MSK1 activity, percentage of DMSO control (MSK1): 111 percentage
- DAPK1 activity, percentage of DMSO control (DAPK1): 100 percentage
- GCK activity, percentage of DMSO control (GCK): 126 percentage
- EPH-A4 activity, percentage of DMSO control (EPH-A4): 94 percentage
- CHK1 activity, percentage of DMSO control (CHK1): 106 percentage
- WNK1 activity, percentage of DMSO control (WNK1): 99 percentage

Compound: CCC(=O)Nc1cccc(Oc2nc(Nc3ccc(N4CCN(C)CC4)cc3OC)ncc2Cl)c1 [WZ4003]
- ULK2 activity, percentage of DMSO control (ULK2): 37 percentage
